From patent publication US6737383B1, “Herbicidal oxadiazolidines” (priority 1999, dated 2004)

Tests used:
[1] = tested on: blackgrass; test: Test B pre/postemergence blackgrass; assay type: in vivo, Alopecurus myosuroides; conditions: for Blackgrass plant response rating (0 to 10 scale): 0 is no effect
Procedure, shortened: (§1)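 Herbicidal effect was estimated by eye on a ten-point control scale after plants spent twelve to sixteen days in a greenhouse following soil or foliar treatment. Foliar sprays targeted plants at one to four leaves; all doses were formulated in a non-phytotoxic solvent with surfactant.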

[2] = tested on: giant foxtail; test: Test B pre/postemergence giant foxtail; assay type: in vivo, Setaria faberii; conditions: for Giant foxtail plant response rating (0 to 10 scale): 0 is no effect
Procedure, shortened: as §1

[3] = tested on: wheat; test: Test B pre/postemergence wheat; assay type: in vivo, Triticum aestivum
Procedure, shortened: as §1

[4] = tested on: purple nutsedge; test: Test B pre/postemergence purple nutsedge; assay type: in vivo, Cyperus rotundus; conditions: for Nutsedge plant response rating (0 to 10 scale): 0 is no effect
Procedure, shortened: as §1

[5] = Postemergence, Rate 250 g/ha, scale 0 to 10
[6] = Postemergence, Rate 500 g/ha, scale of 0 to 10 where 0 is no effect and 10 is complete control
[7] = Preemergence, Rate 62 g/ha, scale of 0 to 10 where 0 is no effect and 10 is complete control
[8] = Preemergence, Rate 125 g/ha, scale of 0 to 10 where 0 is no effect and 10 is complete control
[9] = Preemergence, Rate 250 g/ha, scale 0 to 10, 0 is no effect, 10 is complete control
[10] = Preemergence, Rate 500 g/ha, scale 0 to 10, 0 is no effect, 10 is complete control
[11] = Rate 62 g/ha, Postemergence, scale 0 to 10 (0 no effect, 10 complete control)
[12] = Rate 125 g/ha, Postemergence, scale 0 to 10, 0 is no effect, 10 is complete control
[13] = Preemergence, Rate 31 g/ha, visual rating, scale 0 to 10 (0 no effect, 10 complete control)
[14] = Preemergence, Rate 125 g/ha, 10 is complete control
[15] = Rate 31 g/ha, Postemergence, scale 0 to 10
[16] = Rate 62 g/ha, Postemergence, scale of 0 to 10 where 0 is no effect and 10 is complete control
[17] = Rate 125 g/ha, Postemergence, scale 0 to 10
[18] = Postemergence, Rate 125 g/ha, scale of 0 to 10 where 0 is no effect and 10 is complete control
[19] = Preemergence, Rate 62 g/ha, scale 0 to 10 (0 no effect, 10 complete control)
[20] = Preemergence, Rate 500 g/ha, scale 0 to 10 (0 no effect, 10 complete control)
[21] = Rate 250 g/ha, Postemergence, scale 0 to 10, 0 is no effect, 10 is complete control
[22] = Rate 500 g/ha, Postemergence, scale 0 to 10

CC(C)N(C(=O)n1oc(=O)n(CC(=O)N(C)C)c1=O)c1ccc(F)cc1F [Compound 440]
10: Blackgrass plant response rating [1, 9] | Blackgrass plant response rating [1, 10] | Giant foxtail plant response rating [2, 9] | Giant foxtail plant response rating [2, 10]
7: Wheat plant response rating [3, 10]
6: Plant response rating, Blackgrass [1, 8] | Plant response rating, Giant foxtail [2, 7] | Plant response rating, Giant foxtail [2, 8]
8: Blackgrass plant response rating [1, 6]
2: Plant response rating, Blackgrass [1, 7]
9: Giant foxtail plant response rating [2, 5] | Giant foxtail plant response rating [2, 6]
4: Blackgrass plant response rating [1, 5] | Giant foxtail plant response rating [2, 12] | Wheat plant response rating [3, 6]
5: Wheat plant response rating [3, 9]
0: Blackgrass plant response rating [1, 11] | Blackgrass plant response rating [1, 12] | Giant foxtail plant response rating [2, 11] | Wheat plant response rating [3, 5] | Plant response rating, Wheat [3, 7] | Plant response rating, Wheat [3, 8] | Wheat plant response rating [3, 11] | Wheat plant response rating [3, 12] | Nutsedge plant response rating [4, 5] | Nutsedge plant response rating [4, 6] | Plant response rating, Nutsedge [4, 7] | Plant response rating, Nutsedge [4, 8] | Nutsedge plant response rating [4, 9] | Nutsedge plant response rating [4, 11] | Nutsedge plant response rating [4, 12]

Cc1ccccc1-n1c(=O)on(C(=O)N(c2ccc(F)cc2)C2CCC2)c1=O [Compound 200]
6: Giant foxtail plant response rating [2, 9]
0: Blackgrass plant response rating [1, 13] | Blackgrass plant response rating [1, 7] | Blackgrass plant response rating [1, 15] | Blackgrass plant response rating [1, 16] | Blackgrass plant response rating [1, 17] | Plant response rating (0 to 10; 0 is no effect, 10 is complete control), Blackgrass ([1]; Rate 250 g/ha, Postemergence) | Giant foxtail plant response rating [2, 13] | Giant foxtail plant response rating [2, 7] | Giant foxtail plant response rating [2, 15] | Giant foxtail plant response rating [2, 16] | Giant foxtail plant response rating [2, 17] | Plant response rating (0 to 10; 0 is no effect, 10 is complete control), Giant foxtail ([2]; Rate 250 g/ha, Postemergence) | Wheat plant response rating [3, 13] | Wheat plant response rating [3, 7] | Wheat plant response rating [3, 9] | Wheat plant response rating [3, 16] | Wheat plant response rating [3, 17] | Plant response rating (0 to 10; 0 is no effect, 10 is complete control), Wheat ([3]; Rate 250 g/ha, Postemergence) | Nutsedge plant response rating [4, 13] | Nutsedge plant response rating [4, 7] | Nutsedge plant response rating (0 to 10 scale) [4, 14] | Nutsedge plant response rating [4, 15] | Nutsedge plant response rating [4, 16] | Nutsedge plant response rating [4, 17] | Plant response rating (0 to 10; 0 is no effect, 10 is complete control), Nutsedge ([4]; Rate 250 g/ha, Postemergence)
7: Blackgrass plant response rating [1, 9]
4: Giant foxtail plant response rating (0 to 10 scale) [2, 14]
5: Blackgrass plant response rating (0 to 10 scale) [1, 14]

C=CCn1c(=O)on(C(=O)N(c2ccc(F)cc2)C2CC2)c1=O [Compound 154]
8: Giant foxtail plant response rating [2, 20]
3: Blackgrass plant response rating [1, 9] | Giant foxtail plant response rating [2, 22]
0: Blackgrass plant response rating [1, 18] | Blackgrass plant response rating [1, 19] | Blackgrass plant response rating (0 to 10 scale) [1, 14] | Blackgrass plant response rating [1, 16] | Plant response rating, Blackgrass [1, 21] | Blackgrass plant response rating [1, 22] | Giant foxtail plant response rating [2, 18] | Giant foxtail plant response rating [2, 19] | Giant foxtail plant response rating (0 to 10 scale) [2, 14] | Giant foxtail plant response rating [2, 16] | Wheat plant response rating [3, 19] | Wheat plant response rating (0 to 10 scale) ([3]; Preemergence, Rate 125 g/ha, 0 is no effect, 10 is complete control) | Wheat plant response rating [3, 9] | Wheat plant response rating [3, 20] | Wheat plant response rating [3, 16] | Plant response rating, Wheat [3, 21] | Wheat plant response rating [3, 22] | Nutsedge plant response rating [4, 18] | Nutsedge plant response rating [4, 19] | Nutsedge plant response rating (0 to 10 scale) [4, 14] | Nutsedge plant response rating [4, 9] | Nutsedge plant response rating [4, 20] | Nutsedge plant response rating [4, 16] | Plant response rating, Nutsedge [4, 21] | Nutsedge plant response rating [4, 22]
1: Plant response rating, Giant foxtail [2, 21]
5: Blackgrass plant response rating [1, 20]
